Experimental data taken from patent publication US11684614B2, “Formulations of hydroxypyridonate actinide/lanthanide decorporation agents” (priority 2017, dated 2023).
“And” between values parts separate entries of the source, which are not always exact repeats. Equal values may be shown once.

Assay: Repeated-treatment efficacy for removing an intravenous dose of 238Pu (excretion, tissue retention, clinical observations), female and male arms
Format: in vivo, Swiss-Webster mice
Conditions: listed as 3,4,3-LI(1,2-HOPO); for % Recovered Dose - Feces per Day: male mice
Experimental: The objective of this study was to characterize the efficacy of 3,4,3-L1(1,2-HOPO) at enhancing elimination from an internal plutonium burden in female and male Swiss-Webster mice administered a soluble citrate complex of ^238Pu and treated multiple times, starting at 24 hours after the exposure. Efficacy was evaluated by comparing the tissue contents, urinary and fecal excretions of ^238Pu in treated animals versus untreated animals.
The medical countermeasure 3,4,3-L1(1,2-HOPO) was administered parenterally (ip) or orally (po) via consecutive injections or gavages (six daily or twelve twice daily) starting at 24 hours post contamination at the following four selected doses: 30 μmol/kg ip, 150 μmol/kg po, 300 μmol/kg po, and 600 μmol/kg po (equivalent to respective approximate human doses range of […], using the accepted conversion system of mouse doses into human equivalent doses—HED—based on body surface area). Oral doses also included the permeability enhancer selected during formulation development work.
• Challenge isotope: ^238Pu • Challenge dose: 25 nCi (i.e., approximately 0.8 μCi/kg) • Route of contamination: Intravenous (iv) tail-vein • Route of treatment: Intraperitoneal Injection (ip) or Oral (po) • Frequency of treatment: Multiple (once- or twice-daily for 6 days) doses, starting 24 hr postcontamination • Treatment dose calculation: Dose calculations (mg/kg or μmol/kg) for the decorporation agent were based on the individual body weight measured after contamination. • Study Duration: 11 days, in-life
c. […] Test article and control dose formulations were prepared within 1 day of dose administration, by weighing out the appropriate amount of test article, dispersing in vehicle. For ip solutions, the test article was used alone, while for oral suspensions, a mixture of test article and excipient (90:10, w:w) was used. The pH was adjusted to 7.0-7.4 for ip administration and 5.0-5.5 for oral administration with sterile NaOH. Dose formulations were prepared at room temperature and filter-sterilized. • Storage: 2-8° C.; refrigerated; protected from light. • Characterization: The concentration of each test article formulation was verified by high-performance liquid chromatography-mass spectrometry. • Test Article Handling: Test, reference, and control article formulations were handled with the use of eye protection, gloves, and a protective laboratory coat. • Correct Dose Assurance: The test article was weighed with calibrated balances. The administration of each dose formulation was properly documented, and the amount administered to each animal recorded.
e. Experimental Procedures (In-Life Evaluations and Euthanasia) • Contamination: Single administration by intravenous (iv) tail-vein injection (0.2 mL injection volume) under isoflurane anesthesia. Three standard 0.2 mL injections were performed into polyethylene bottles and pre-loaded with aliquots of concentrated nitric acid on each injection day. Six female and six male mice were culled for necropsy 1 hr post-contamination and were used as standards. A11 standards were processed and counted together with the final samples to allow verification of the contamination dose. • Dose Administration: Single administration by intraperitoneal injection (ip) or oral gavage (po) under isoflurane anesthesia. • Mortality/Morbidity: Assessed at least once daily. • Clinical Observations: Recorded once daily (4 hr post-dose on day of treatment), or more often as clinical signs warranted. […]

[1] = male arm table, Day 11 necropsy, animal group M

O=C(NCCCN(CCCCN(CCCNC(=O)c1cccc(=O)n1O)C(=O)c1cccc(=O)n1O)C(=O)c1cccc(=O)n1O)c1cccc(=O)n1O [3,4,3-L1(1,2-HOPO)]
% Recovered Dose Urine per Day, Day 5 [1]: 0.66% and 0.36% and 0.19% and 0.53% and 0.60% and 0.47% and 0.30% and 0.22% | % Recovered Dose Urine per Day, Day 6 [1]: 0.38% and 0.35% and 0.46% and 0.26% and 0.36% and 0.41% and 0.12% and 0.61% | % Recovered Dose Urine per Day, Day 7 [1]: 0.73% and 0.69% and 0.76% and 0.65% and 0.63% and 0.83% and 0.47% and 0.38% | % Recovered Dose Urine per Day, Day 8 [1]: 0.40% and 0.36% and 0.42% and 0.32% and 0.43% and 0.34% and 0.74% and 0.33% | % Recovered Dose Urine per Day, Day 9 [1]: 0.40% and 0.45% and 0.37% and 0.42% and 0.61% and 0.41% and 0.48% | % Recovered Dose Urine per Day, Day 10 [1]: 0.12% and 0.23% and 0.16% and 0.28% and 0.21% and 0.62% and 0.46% and 0.27% | % Recovered Dose Urine per Day, Day 11 [1]: 0.35% and 0.30% and 0.22% and 0.20% and 0.36% and 0.43% and 0.26% and 0.42% | % Recovered Dose - Feces per Day (group B, feces day 1, Day 7 necropsy): 4.37% and 8.32% and 7.75% and 4.30% | % Recovered Dose - Feces per Day (group B, feces day 2, Day 7 necropsy): 7.66% and 12.16% and 9.09% and 13.43% | % Recovered Dose - Feces per Day (group B, feces day 3, Day 7 necropsy): 2.15% and 3.85% and 3.59% and 3.55% | % Recovered Dose - Feces per Day (group B, feces day 4, Day 7 necropsy): 3.14% and 4.08% and 1.98% and 4.25% | % Recovered Dose - Feces per Day (group B, feces day 5, Day 7 necropsy): 1.34% and 2.97% and 0.93% and 2.49% | % Recovered Dose - Feces per Day (group B, feces day 6, Day 7 necropsy): 2.28% and 6.44% and 1.47% and 2.02% | % Recovered Dose - Feces per Day (group B, feces day 7, Day 7 necropsy): 1.46% and 2.68% and 1.21% and 2.10% | % Recovered Dose - Feces per Day (group C, feces day 1, Day 7 necropsy): 8.78% and 6.29% and 9.94% and 4.97% | % Recovered Dose - Feces per Day (group C, feces day 2, Day 7 necropsy): 15.31% and 12.37% and 22.78% and 14.58% | % Recovered Dose - Feces per Day (group C, feces day 3, Day 7 necropsy): 2.49% and 5.42% and 4.54% and 6.24% | % Recovered Dose - Feces per Day (group C, feces day 4, Day 7 necropsy): 3.01% and 3.04% and 5.87% and 3.77% | % Recovered Dose - Feces per Day (group C, feces day 5, Day 7 necropsy): 1.70% and 2.00% and 3.00% and 2.15% | % Recovered Dose - Feces per Day (group C, feces day 6, Day 7 necropsy): 1.91% and 2.24% and 2.37% and 2.32% | % Recovered Dose - Feces per Day (group C, feces day 7, Day 7 necropsy): 1.21% and 1.32% and 1.95% and 1.31% | % Recovered Dose - Feces per Day (group E, feces day 1, Day 7 necropsy): 6.19% and 11.96% and 7.28% and 11.97% | % Recovered Dose - Feces per Day (group E, feces day 2, Day 7 necropsy): 19.35% and 15.22% and 16.75% and 13.98% | % Recovered Dose - Feces per Day (group E, feces day 3, Day 7 necropsy): 3.91% and 2.72% and 3.36% and 3.87% | % Recovered Dose - Feces per Day (group E, feces day 4, Day 7 necropsy): 5.36% and 3.66% and 5.40% and 5.25% | % Recovered Dose - Feces per Day (group E, feces day 5, Day 7 necropsy): 1.97% and 1.84% and 1.67% and 1.79% | % Recovered Dose - Feces per Day (group E, feces day 6, Day 7 necropsy): 2.01% and 2.66% and 2.92% and 1.87% | % Recovered Dose - Feces per Day (group E, feces day 7, Day 7 necropsy): 2.11% and 1.97% and 2.22% and 1.18% | % Recovered Dose - Feces per Day (group F, feces day 1, Day 7 necropsy): 6.91% and 7.78% and 14.62% and 9.13% | % Recovered Dose - Feces per Day (group F, feces day 2, Day 7 necropsy): 14.25% and 13.00% and 16.24% and 15.40% | % Recovered Dose - Feces per Day (group F, feces day 3, Day 7 necropsy): 13.31% and 3.36% and 3.68% and 5.91% | % Recovered Dose - Feces per Day (group F, feces day 4, Day 7 necropsy): 4.17% and 4.09% and 3.98% and 3.52% | % Recovered Dose - Feces per Day (group F, feces day 5, Day 7 necropsy): 1.77% and 2.34% and 1.75% and 1.78% | % Recovered Dose - Feces per Day (group F, feces day 6, Day 7 necropsy): 1.60% and 2.84% and 1.72% and 1.54% | % Recovered Dose - Feces per Day (group F, feces day 7, Day 7 necropsy): 0.74% and 2.65% and 2.45% and 1.59%
